Assay results from patent US20230365541A1, “INHIBITOR OF ENHANCER OF ZESTE HOMOLOGUE 2, AND USE THEREOF” (HAISCO PHARMACEUTICALS PTE. LTD., priority 2020, published 2023).

Target: EZH2 (Homo sapiens (Human), UniProt Q15910)
Test: Test method for EZH2 enzyme activity
Format: biochemical
Settings: H3K27(21-44) and [3H]-SAM
Description: The compounds were dissolved in DMSO, formulated into 10 mM solutions and serially diluted with DMSO to obtain 100-fold the final concentration. 200 nL of the solutions of the compounds was transferred to a 384-well plate (Perkin Elmer, Cat. No. 6007299) by using Echo550. EZH2 (BPS, Cat. No. 51004) was diluted with 1×assay buffer (50 mM Tris-HCl 9.0, 0.01% Tween-20, 1 mM DTT) to 2-fold the final concentration (EZH2: 3 nM). A mixed solution of H3K27(21-44) and [3H]-SAM (PerkinElmer, Lot. No. 2146246) (H3K27(21-44): 200 nM, [3H]-SAM: 100 nM) was formulated. The EZH2 diluted solution was taken and added to the 384-well plate at 10 μL/well (10 μL of 1×assay buffer was added in the control group). The plate was sealed and then incubated at room temperature for 15 minutes. 10 μL of the mixed solution of H3K27 (21-44) and [3H]-SAM was added to each well. The plate was sealed and then incubated at room temperature for 60 minutes. 50 μM of SAM (Sigma, Cat. No. A7007) was formulated at low temperature and added to the 384-well plate at 10 μL/well. The sample was taken at 25 μL/well, transferred to a flashplate and incubated at room temperature for at least 1 hour. The flashplate was washed 3 times with a plate washing liquid (dH2O+0.1% Tween-20) and read by using Microbeta. The inhibition rate was calculated in Excel according to: inhibition rate (%)=(maximum valuepositive control−detection signal value)/(maximum valuepositive control−minimum valuenegative control)*100, and IC50 values were fitted by using XL-Fit.

Chain of EZH2 (Q15910 other isoform, or with tags, fused parts or gaps isoform Q15910-2): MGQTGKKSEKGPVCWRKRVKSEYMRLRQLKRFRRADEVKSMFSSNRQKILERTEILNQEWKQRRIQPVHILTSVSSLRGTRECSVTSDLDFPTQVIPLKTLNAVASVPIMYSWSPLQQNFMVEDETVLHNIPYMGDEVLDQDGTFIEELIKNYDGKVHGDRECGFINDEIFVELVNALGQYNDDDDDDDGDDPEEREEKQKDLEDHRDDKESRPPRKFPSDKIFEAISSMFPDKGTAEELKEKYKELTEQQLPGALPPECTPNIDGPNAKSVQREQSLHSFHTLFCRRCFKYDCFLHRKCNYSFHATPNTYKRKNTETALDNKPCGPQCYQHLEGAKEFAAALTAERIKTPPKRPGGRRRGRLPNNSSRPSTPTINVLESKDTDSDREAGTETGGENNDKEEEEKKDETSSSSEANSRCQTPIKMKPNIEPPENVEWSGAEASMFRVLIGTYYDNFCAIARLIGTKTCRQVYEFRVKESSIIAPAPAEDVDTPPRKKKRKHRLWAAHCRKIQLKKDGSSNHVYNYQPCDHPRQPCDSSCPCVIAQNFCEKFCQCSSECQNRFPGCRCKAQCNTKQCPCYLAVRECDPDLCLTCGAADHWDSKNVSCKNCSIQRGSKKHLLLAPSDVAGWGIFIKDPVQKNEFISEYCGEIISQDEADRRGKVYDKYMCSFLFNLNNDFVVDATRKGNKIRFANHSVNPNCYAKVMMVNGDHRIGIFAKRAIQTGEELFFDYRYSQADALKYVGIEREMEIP
Chain of EZH2 (O75530 2-441 partner): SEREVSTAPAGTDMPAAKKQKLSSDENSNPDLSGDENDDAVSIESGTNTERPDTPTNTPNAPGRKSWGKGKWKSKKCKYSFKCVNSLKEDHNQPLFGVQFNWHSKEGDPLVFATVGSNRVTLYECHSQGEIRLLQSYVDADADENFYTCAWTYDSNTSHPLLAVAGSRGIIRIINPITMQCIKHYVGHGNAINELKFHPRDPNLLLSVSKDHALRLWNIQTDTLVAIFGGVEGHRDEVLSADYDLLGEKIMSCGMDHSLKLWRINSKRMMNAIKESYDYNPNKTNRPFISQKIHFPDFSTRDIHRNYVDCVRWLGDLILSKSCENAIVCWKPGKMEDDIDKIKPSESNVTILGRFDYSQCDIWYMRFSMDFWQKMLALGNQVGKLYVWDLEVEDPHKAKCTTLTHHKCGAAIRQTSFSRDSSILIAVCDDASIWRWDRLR
Chain of EZH2 (Q15022 2-739 partner): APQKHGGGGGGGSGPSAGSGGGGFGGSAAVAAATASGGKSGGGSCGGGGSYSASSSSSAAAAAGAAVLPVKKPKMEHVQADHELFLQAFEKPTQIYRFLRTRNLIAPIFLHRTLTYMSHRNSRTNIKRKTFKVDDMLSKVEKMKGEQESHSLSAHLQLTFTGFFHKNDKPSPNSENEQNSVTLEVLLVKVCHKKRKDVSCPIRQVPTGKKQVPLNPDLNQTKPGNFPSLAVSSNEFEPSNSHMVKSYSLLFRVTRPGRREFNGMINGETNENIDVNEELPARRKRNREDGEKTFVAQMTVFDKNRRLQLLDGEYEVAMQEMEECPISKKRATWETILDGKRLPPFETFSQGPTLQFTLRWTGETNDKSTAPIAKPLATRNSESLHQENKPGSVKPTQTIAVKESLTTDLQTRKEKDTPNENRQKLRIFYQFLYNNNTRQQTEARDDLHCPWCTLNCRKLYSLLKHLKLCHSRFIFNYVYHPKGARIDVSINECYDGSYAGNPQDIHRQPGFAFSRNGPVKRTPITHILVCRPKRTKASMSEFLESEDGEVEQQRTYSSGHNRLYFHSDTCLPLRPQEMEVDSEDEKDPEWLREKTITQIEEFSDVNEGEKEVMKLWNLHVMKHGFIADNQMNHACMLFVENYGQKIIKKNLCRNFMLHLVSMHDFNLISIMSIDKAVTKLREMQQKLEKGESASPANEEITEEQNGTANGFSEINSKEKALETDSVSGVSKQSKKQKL
Chain of EZH2 (Q09028 2-425 partner): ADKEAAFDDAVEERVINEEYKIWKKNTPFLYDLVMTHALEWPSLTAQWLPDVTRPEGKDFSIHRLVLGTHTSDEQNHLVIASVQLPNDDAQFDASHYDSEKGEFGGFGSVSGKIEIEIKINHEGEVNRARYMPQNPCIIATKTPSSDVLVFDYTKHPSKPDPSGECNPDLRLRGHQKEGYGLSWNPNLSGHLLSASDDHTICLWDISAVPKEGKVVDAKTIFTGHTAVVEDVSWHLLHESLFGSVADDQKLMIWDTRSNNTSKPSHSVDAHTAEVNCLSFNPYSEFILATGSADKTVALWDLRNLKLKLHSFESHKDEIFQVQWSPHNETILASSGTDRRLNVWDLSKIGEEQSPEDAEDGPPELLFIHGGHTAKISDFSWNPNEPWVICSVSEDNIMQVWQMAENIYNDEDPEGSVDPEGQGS
Chain of EZH2 (Q6ZN18 whole entry partner): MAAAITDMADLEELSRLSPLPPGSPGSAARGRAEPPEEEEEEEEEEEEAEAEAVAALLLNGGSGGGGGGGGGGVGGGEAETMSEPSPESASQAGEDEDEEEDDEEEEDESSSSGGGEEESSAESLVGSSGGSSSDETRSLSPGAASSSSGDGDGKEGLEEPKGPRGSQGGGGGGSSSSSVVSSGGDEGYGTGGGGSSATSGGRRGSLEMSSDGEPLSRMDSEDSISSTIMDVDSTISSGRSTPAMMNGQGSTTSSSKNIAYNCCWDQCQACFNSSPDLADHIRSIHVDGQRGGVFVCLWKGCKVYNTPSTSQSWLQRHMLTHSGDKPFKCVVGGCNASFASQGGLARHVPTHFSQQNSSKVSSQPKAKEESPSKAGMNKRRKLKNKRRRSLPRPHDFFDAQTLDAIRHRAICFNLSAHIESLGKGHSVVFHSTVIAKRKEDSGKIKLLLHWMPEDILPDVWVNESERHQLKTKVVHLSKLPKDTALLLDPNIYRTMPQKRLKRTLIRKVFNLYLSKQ

Row | IC50 [nM] | Compound
1 | 0.34 | CSc1cc(C)[nH]c(=O)c1CNC(=O)c1cc(Cl)c2c(c1C)OC(C)([C@H]1CC[C@@H](N3CC4CN(C)CC4C3)CC1)O2 (single isomer, unassigned) [Compound 42, isomer 1, 7-chloro-2,4-dimethyl-N-((6-methyl-4-(methylthio)-2-oxo-1,2-dihydropyridin-3-yl)methyl)-2-(4-(5-methylhexahydropyrrolo[3,4-c]pyrrol-2(1H)-yl)cyclohexyl)benzo[d][1,3]dioxole-5-carboxamide]
2 | 0.23 | CSc1cc(C)[nH]c(=O)c1CNC(=O)c1cc(Cl)c2c(c1C)OC(C)([C@H]1CC[C@@H](N3CC4CN(C)CC4C3)CC1)O2 (single isomer, unassigned) [Compound 42, isomer 2, 7-chloro-2,4-dimethyl-N-((6-methyl-4-(methylthio)-2-oxo-1,2-dihydropyridin-3-yl)methyl)-2-(4-(5-methylhexahydropyrrolo[3,4-c]pyrrol-2(1H)-yl)cyclohexyl)benzo[d][1,3]dioxole-5-carboxamide]
3 | 0.28 | CSc1cc(C)[nH]c(=O)c1CNC(=O)c1cc(Cl)c2c(c1C)OC(C)(C1CCC(N[C@H]3C[C@H](O)C3)CC1)O2 (single isomer, unassigned) [Compound 45, isomer 1, 7-chloro-2-(4-((trans-3-hydroxycyclobutyl)amino)cyclohexyl)-2,4-dimethyl-N-((6-methyl-4-(methylthio)-2-oxo-1,2-dihydropyridin-3-yl)methyl)benzo[d][1,3]dioxole-5-carboxamide]
4 | 0.35 | CSc1cc(C)[nH]c(=O)c1CNC(=O)c1cc(Cl)c2c(c1C)OC(C)(C1CCC(N[C@H]3C[C@H](O)C3)CC1)O2 (single isomer, unassigned) [Compound 45, isomer 2, 7-chloro-2-(4-((trans-3-hydroxycyclobutyl)amino)cyclohexyl)-2,4-dimethyl-N-((6-methyl-4-(methylthio)-2-oxo-1,2-dihydropyridin-3-yl)methyl)benzo[d][1,3]dioxole-5-carboxamide]
5 | 0.46 | [2H]C([2H])(NC(=O)c1cc(Cl)c2c(c1C)OC(C)([C@H]1CC[C@@H](CN3CCOCC3)CC1)O2)c1c(SC)cc(C)[nH]c1=O (single isomer, unassigned) [Compound 57, isomer 1, 7-chloro-2,4-dimethyl-N-((6-methyl-4-(methylthio)-2-oxo-1,2-dihydropyridin-3-yl)methyl-d2)-2-(4-(morpholinomethyl)cyclohexyl)benzo[d][1,3]dioxole-5-carboxamide]
6 | 0.49 | [2H]C([2H])(NC(=O)c1cc(Cl)c2c(c1C)OC(C)([C@H]1CC[C@@H](CN3CCOCC3)CC1)O2)c1c(SC)cc(C)[nH]c1=O (single isomer, unassigned) [Compound 57, isomer 2, 7-chloro-2,4-dimethyl-N-((6-methyl-4-(methylthio)-2-oxo-1,2-dihydropyridin-3-yl)methyl-d2)-2-(4-(morpholinomethyl)cyclohexyl)benzo[d][1,3]dioxole-5-carboxamide]
7 | 0.52 | CSc1cc(C)[nH]c(=O)c1CNC(=O)c1cc(Cl)c2c(c1C)OC(C)(C1CCC(NC3COC3)CC1)O2 (single isomer, unassigned) [Compound 61, isomer 1, 7-chloro-2,4-dimethyl-N-((6-methyl-4-(methylthio)-2-oxo-1,2-dihydropyridin-3-yl)methyl)-2-(4-(oxetan-3-ylamino)cyclohexyl)benzo[d][1,3]dioxole-5-carboxamide]
8 | 0.25 | CSc1cc(C)[nH]c(=O)c1CNC(=O)c1cc(Cl)c2c(c1C)OC(C)(C1CCC(NC3COC3)CC1)O2 (single isomer, unassigned) [Compound 61, isomer 2, 7-chloro-2,4-dimethyl-N-((6-methyl-4-(methylthio)-2-oxo-1,2-dihydropyridin-3-yl)methyl)-2-(4-(oxetan-3-ylamino)cyclohexyl)benzo[d][1,3]dioxole-5-carboxamide]
9 | 0.92 | CSc1cc(C)[nH]c(=O)c1CNC(=O)c1cc(Cl)c2c(c1C)OC(C)([C@H]1CC[C@@H](C(=O)N3CC(F)(F)C3)CC1)O2 (single isomer, unassigned; isomer 2) [Compound 47, isomer 2, 7-chloro-2-(4-(3,3-difluoroazetidine-1-carbonyl)cyclohexyl)-2,4-dimethyl-N-(di-deuterated(6-methyl-4-(methylthio)-2-oxo-1,2-dihydropyridin-3-yl)di-deuterated-methyl)benzo[d][1,3]dioxole-5-carboxamide]
10 | 0.61 | CSc1cc(C)[nH]c(=O)c1CNC(=O)c1cc(Cl)c2c(c1C)OC(C)(C1CCN(C(=O)c3csc(C)n3)CC1)O2 (stereo not shown) [Compound 21, 7-chloro-2,4-dimethyl-N-((6-methyl-4-(methylthio)-2-oxo-1,2-dihydropyridin-3-yl)methyl)-2-(1-(2-methylthiazole-4-carbonyl)piperidin-4-yl)benzo[d][1,3]dioxole-5-carboxamide]
11 | 0.58 | CSc1cc(C)[nH]c(=O)c1CNC(=O)c1cc(Cl)c2c(c1C)OC(C)(C1CCN(C3CC3)CC1)O2 (stereo not shown) [Compound 24, 7-chloro-2-(1-cyclopropylpiperidin-4-yl)-2,4-dimethyl-N-((6-methyl-4-(methylthio)-2-oxo-1,2-dihydropyridin-3-yl)methyl)benzo[d][1,3]dioxole-5-carboxamide]
12 | 0.49 | [2H]C([2H])(NC(=O)c1cc(Cl)c2c(c1C)OC(C)(C1CCN(CC3CC(F)(F)C3)CC1)O2)c1c(SC)cc(C)[nH]c1=O (stereo not shown) [Compound 28, 7-chloro-2-(1-((3,3-difluorocyclobutyl)methyl)piperidin-4-yl)-2,4-dimethyl-N-((6-methyl-4-(methylthio)-2-oxo-1,2-dihydropyridin-3-yl)methyl-d2)benzo[d][1,3]dioxole-5-carboxamide]
13 | 0.58 | CSc1cc(C)[nH]c(=O)c1CNC(=O)c1cc(Cl)c2c(c1C)OC(C)(C1CCN(CC3(F)CC3)CC1)O2 (stereo not shown) [Compound 32, 7-chloro-2-(1-((1-fluorocyclopropyl)methyl)piperidin-4-yl)-2,4-dimethyl-N-((6-methyl-4-(methylthio)-2-oxo-1,2-dihydropyridin-3-yl)methyl)benzo[d][1,3]dioxole-5-carboxamide]
14 | 0.57 | COC1CC(N2CCC(C3(C)Oc4c(Cl)cc(C(=O)NCc5c(SC)cc(C)[nH]c5=O)c(C)c4O3)CC2)C1 (stereo not shown) [Compound 33, 7-chloro-2-(1-(3-methoxycyclobutyl)piperidin-4-yl)-2,4-dimethyl-N-((6-methyl-4-(methylthio)-2-oxo-1,2-dihydropyridin-3-yl)methyl)benzo[d][1,3]dioxole-5-carboxamide]
15 | 0.59 | CSc1cc(C)[nH]c(=O)c1CNC(=O)c1cc(Cl)c2c(c1C)OC(C)(C1CCC(N(C)C3CC(F)(F)C3)CC1)O2 (stereo not shown) [Compound 35, 7-chloro-2-(4-((3,3-difluorocyclobutyl)(methyl)amino)cyclohexyl)-2,4-dimethyl-N-((6-methyl-4-(methylthio)-2-oxo-1,2-dihydropyridin-3-yl)methyl)benzo[d][1,3]dioxole-5-carboxamide]

Row | Compound | IC50 [nM]
16 | CSc1cc(C)[nH]c(=O)c1CNC(=O)c1cc(Cl)c2c(c1C)OC(C)([C@H]1CC[C@@H](N3CC(N4CCCC4)C3)CC1)O2 (single isomer, unassigned) [Compound 43, isomer 2, 7-chloro-2,4-dimethyl-N-((6-methyl-4-(methylthio)-2-oxo-1,2-dihydropyridin-3-yl)methyl)-2-(4-(3-(pyrrolidin-1-yl)azetidin-1-yl)cyclohexyl)benzo[d][1,3]dioxole-5-carboxamide] | 0.42
17 | CSc1cc(C)[nH]c(=O)c1CNC(=O)c1cc(Cl)c2c(c1C)OC(C)([C@H]1CC[C@@H](N3CC[Si](C)(C)CC3)CC1)O2 (single isomer, unassigned) [Compound 49, isomer 1, 7-chloro-2-(4-(4,4-dimethyl-1,4-azasilinan-1-yl)cyclohexyl)-2,4-dimethyl-N-((6-methyl-4-(methylthio)-2-oxo-1,2-dihydropyridin-3-yl)methyl)benzo[d][1,3]dioxole-5-carboxamide] | 0.51
18 | CSc1cc(C)[nH]c(=O)c1CNC(=O)c1cc(Cl)c2c(c1C)OC(C)(C1CCN(C(=O)C3CC(F)(F)C3)CC1)O2 (single isomer, unassigned; isomer 1) [Compound 11, isomer 1, 7-chloro-2-(1-(3,3-difluorocyclobutane-1-carbonyl)piperidin-4-yl)-2,4-dimethyl-N-((6-methyl-4-(methylthio)-2-oxo-1,2-dihydropyridin-3-yl)methyl)benzo[d][1,3]dioxole-5-carboxamide] | 0.73
19 | CSc1cc(C)[nH]c(=O)c1CNC(=O)c1cc(Cl)c2c(c1C)OC(C)(C1CCN(C(=O)C3CC(F)(F)C3)CC1)O2 (single isomer, unassigned; isomer 2) [Compound 11, isomer 2, 7-chloro-2-(1-(3,3-difluorocyclobutane-1-carbonyl)piperidin-4-yl)-2,4-dimethyl-N-((6-methyl-4-(methylthio)-2-oxo-1,2-dihydropyridin-3-yl)methyl)benzo[d][1,3]dioxole-5-carboxamide] | 0.88
